For one assay, the species on record is Bos taurus. Description: Inhibition of supercoiling activity of calf thymus topoisomerase 1 using […] as substrate after 15 mins by ethidium bromide staining.
The target in assay [1] is T1, DNA topoisomerase 2-alpha (Homo sapiens, UniProt P11388). The assay is described as follows: Inhibition of cleavage activity of human topoisomerase 2 using relaxed pBR322 as substrate at 200 uM after 10 mins by agarose gel electrophoresis analysis relative to control.
The target of assay [2] is T1, DNA topoisomerase 2-alpha. Description: Inhibition of human topoisomerase 2 using […] as substrate after 10 mins by decatenation assay.
The test system of assay [3] is Escherichia coli. Description: Inhibition of cleavage activity of Escherichia coli DNA gyrase using relaxed pBR322 as substrate at 200 uM after 10 mins by agarose gel electrophoresis analysis relative to control.
Assay [4] in a line: Inhibition of supercoiling activity of Escherichia coli DNA gyrase using relaxed pBR322 as substrate after 15 mins by ethidium bromide staining.
Assay [5] has as its system Escherichia coli. The assay is described as follows: Inhibition of Escherichia coli DNA gyrase interaction to 5'-biotinylated DNA after 4 mins by surface plasmon resonance analysis. A general note: SPR reads the build-up and loss of mass on a sensor chip optically.

Structures are written as SMILES. pIC50: −log10 of the molar value. Activity calls are given as the source filed them. The calls are words filed in the database; no cut-off is given here.

T1 sequence (P11388 whole entry): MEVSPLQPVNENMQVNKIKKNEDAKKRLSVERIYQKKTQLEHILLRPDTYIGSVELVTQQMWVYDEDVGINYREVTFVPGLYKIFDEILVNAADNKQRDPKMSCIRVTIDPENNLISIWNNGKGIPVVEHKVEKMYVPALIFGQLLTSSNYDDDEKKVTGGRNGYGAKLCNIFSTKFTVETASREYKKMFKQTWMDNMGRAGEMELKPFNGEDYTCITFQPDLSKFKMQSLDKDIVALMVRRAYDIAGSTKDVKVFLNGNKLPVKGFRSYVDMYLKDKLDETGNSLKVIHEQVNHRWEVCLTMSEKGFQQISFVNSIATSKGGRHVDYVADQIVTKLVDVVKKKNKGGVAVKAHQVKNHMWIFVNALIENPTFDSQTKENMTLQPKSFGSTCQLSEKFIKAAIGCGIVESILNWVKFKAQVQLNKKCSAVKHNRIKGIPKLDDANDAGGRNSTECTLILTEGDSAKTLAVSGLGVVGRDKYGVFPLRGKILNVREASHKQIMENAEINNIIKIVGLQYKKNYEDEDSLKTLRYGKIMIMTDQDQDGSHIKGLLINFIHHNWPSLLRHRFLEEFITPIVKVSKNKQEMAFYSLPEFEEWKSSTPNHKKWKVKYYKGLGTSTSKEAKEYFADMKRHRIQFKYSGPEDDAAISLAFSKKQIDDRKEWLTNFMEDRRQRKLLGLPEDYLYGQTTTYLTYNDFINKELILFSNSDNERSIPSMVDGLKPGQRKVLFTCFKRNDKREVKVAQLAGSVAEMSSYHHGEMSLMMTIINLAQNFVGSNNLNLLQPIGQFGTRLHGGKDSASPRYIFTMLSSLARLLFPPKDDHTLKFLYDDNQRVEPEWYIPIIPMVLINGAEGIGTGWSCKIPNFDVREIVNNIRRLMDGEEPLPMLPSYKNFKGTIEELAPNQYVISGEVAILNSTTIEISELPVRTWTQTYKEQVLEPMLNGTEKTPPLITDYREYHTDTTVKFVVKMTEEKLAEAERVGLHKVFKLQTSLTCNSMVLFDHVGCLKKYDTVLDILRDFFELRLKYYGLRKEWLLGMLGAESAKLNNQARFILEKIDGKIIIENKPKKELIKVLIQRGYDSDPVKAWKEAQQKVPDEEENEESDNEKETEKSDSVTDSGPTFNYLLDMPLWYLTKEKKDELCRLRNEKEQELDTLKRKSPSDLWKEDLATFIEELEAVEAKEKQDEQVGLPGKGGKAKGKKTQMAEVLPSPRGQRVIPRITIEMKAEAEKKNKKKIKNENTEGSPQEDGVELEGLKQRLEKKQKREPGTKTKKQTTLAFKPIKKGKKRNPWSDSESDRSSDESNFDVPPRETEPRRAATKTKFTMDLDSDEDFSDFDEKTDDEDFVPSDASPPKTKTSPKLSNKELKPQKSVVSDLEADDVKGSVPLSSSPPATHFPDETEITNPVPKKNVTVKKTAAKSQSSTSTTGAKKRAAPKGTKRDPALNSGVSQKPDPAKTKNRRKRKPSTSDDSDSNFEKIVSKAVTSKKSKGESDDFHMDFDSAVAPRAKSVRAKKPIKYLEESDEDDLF

With `O=C(CCCCCC(=O)Oc1c(-c2ccc(O)c(O)c2)oc2cc(O)cc(O)c2c1=O)NCC(=O)Nc1ccc(O)c(CO)c1`, in the assay filed under Bos taurus, the inhibition entry was “inactive”. Further, the fold change (FC) in assay [1] was under 1; with Escherichia coli [3] it was 1.9. Moreover, the results for the pIC50 in assay [2] and in assay [4] were 4.10 and under 3.70, respectively.
Consider `O=C(CCCCCC(=O)Oc1c(-c2ccc(O)c(O)c2)oc2cc(O)cc(O)c2c1=O)NCC(=O)Nc1ccc(CO)cc1`, for which the inhibition result in the assay filed under Bos taurus is “inactive”. Moreover, the results for the fold change (FC) (in assay [1]; in the assay on Escherichia coli [3]) were 2.1 and 3, respectively. The pIC50 in assay [2] and in assay [4] was under 3.70 each time.
`CC(=O)O[C@@H]1[C@@H](C)O[C@@H](c2ccc3c(c2O)[C@@H](O)[C@]24O[C@@]2(C3=O)[C@@]2(O)C(=O)C=C(C)C[C@@]2(O)C[C@@H]4O)C[C@H]1OC(=O)/C=C/C=C/C=C/C=C/C(=O)Nc1c(O)c2ccc(O)c(Cl)c2oc1=O` [SIMOCYCLINONE D8] returned a fold change (FC) with Escherichia coli [3] of under 1. Moreover, the pIC50 in assay [4] is 6.39.
On to `COC(=O)/C=C/C=C/C=C/C=C/C(=O)Nc1c(O)c2ccc(O)c(Cl)c2oc1=O`, for which the pIC50 in assay [4] was 4.30.
Consider `O=c1c(O)c(-c2ccc(O)c(O)c2)oc2cc(O)cc(O)c12`, for which, in the assay filed under Bos taurus, the inhibition entry was “Active”.
Consider `O=C(CCCCCC(=O)Oc1c(-c2ccc(O)c(O)c2)oc2cc(O)cc(O)c2c1=O)NCC(=O)Nc1ccccc1`, for which, in the assay filed under Bos taurus, the inhibition result is “Active”. Besides, the fold change (FC) in assay [1] worked out at 2.7; in the assay with Escherichia coli [3] it was 7.8. Besides, the pIC50 in assay [2] is 3.83; in assay [4], 4.31. The inhibition result in the assay with Escherichia coli [5] is “inactive”.
As for `O=C(CCCCCC(=O)Oc1c(-c2ccc(O)c(O)c2)oc2cc(O)cc(O)c2c1=O)NCC(=O)Nc1ccc(O)cc1`, in the assay listed under Bos taurus, the inhibition result was “Active”. In addition, the fold change (FC) came to 2.4 in assay [1] and 5 in the assay on Escherichia coli [3]. Further, the pIC50 in assay [2] was under 3.70; in assay [4], 4.07. In addition, the inhibition entry with Escherichia coli [5] is “inactive”.
As for `COC(=O)CCCCCCCCC(=O)Oc1c(-c2ccc(O)c(O)c2)oc2cc(O)cc(O)c2c1=O`, the inhibition entry in the assay listed under Bos taurus is “inactive”. Further, the fold change (FC) (in assay [1]; with Escherichia coli [3]) was under 1 each time. In addition, the pIC50 in assay [2] and in assay [4] was under 3.70 in each case.
For the compound `O=C(O)Cc1ccc(NC(=O)CNC(=O)CCCCCC(=O)Oc2c(-c3ccc(O)c(O)c3)oc3cc(O)cc(O)c3c2=O)cc1`, the inhibition entry in the assay filed under Bos taurus was “inactive”. Further, the fold change (FC) in assay [1] is under 1; in the assay with Escherichia coli [3], 1.8. The pIC50 in assay [2] and in assay [4] was under 3.70 each time.

As usually defined, the pIC50 is −log10 of the IC50, conventionally taken in molar units. A lower pIC50 goes with a large IC50.
